From article doi:10.1101/2025.01.28.635346v1 (bioRxiv, 2025)
Bridge positions count the residues as written; N and C are the ends. Peptide text beside a SMILES is read from it.

Columns and labels:
integrin αvβ6 [1] = molecular target: T1, integrin αvβ6 (Homo sapiens, UniProt P06756+P18564); experiment: AlphaLISA competition assay vs LAP, biotinylated αvβ6; assay type: binding
integrin αvβ8 [2] = molecular target: T2, integrin αvβ8 (Homo sapiens, UniProt P06756+P26012); experiment: AlphaLISA competition assay vs LAP, biotinylated αvβ8; assay type: binding
integrin αvβ6 [3] = molecular target: T1, integrin αvβ6; experiment: ELISA competition assay, integrin αvβ6 binding to LAP
integrin αvβ8 [4] = molecular target: T2, integrin αvβ8; experiment: ELISA competition assay, integrin αvβ8 binding to LAP
[5] = αvβ6 IC50, ELISA competition vs LAP, mean, n ≥ 3

With `CC[C@H](C)[C@H](NC(=O)[C@@H]1CCCN1C(=O)[C@H](C)NC(=O)[C@H](CC(=O)O)NC(=O)CNC(=O)[C@H](CCCNC(=N)N)NC(=O)[C@@H](NC(=O)[C@H](Cc1ccccc1)NC(=O)[C@H](Cc1ccc(O)cc1)NC(=O)[C@@H]1CCC(=O)NCC(=O)NCC(=O)N[C@@H](C)C(=O)NCC(=O)N[C@@H](Cc2c[nH]cn2)C(=O)N[C@@H](C(C)C)C(=O)N2CCC[C@H]2C(=O)N1)C(C)C)C(=O)N[C@@H](CO)C(=O)N[C@@H](Cc1ccccc1)C(=O)N[C@@H](Cc1ccc(O)cc1)C(=O)NCC(=O)O` [lassotide 4] (GGAGHVPEYFVRGDAPISFYG-OH; lactam N-8; C-terminus assumed) the IC50 (integrin αvβ6 [1]) was 436 nM and the IC50 (integrin αvβ8 [2]) was 109 nM.
Work on `CC[C@H](C)[C@H](NC(=O)[C@@H]1CCCN1C(=O)[C@H](CCSC)NC(=O)[C@H](CC(=O)O)NC(=O)CNC(=O)[C@H](CCCNC(=N)N)NC(=O)[C@@H](NC(=O)[C@H](Cc1ccccc1)NC(=O)[C@H](Cc1ccc(O)cc1)NC(=O)[C@@H]1CCC(=O)NCC(=O)NCC(=O)N[C@@H](C)C(=O)NCC(=O)N[C@@H](Cc2c[nH]cn2)C(=O)N[C@@H](C(C)C)C(=O)N2CCC[C@H]2C(=O)N1)C(C)C)C(=O)N[C@@H](CO)C(=O)N[C@@H](Cc1ccccc1)C(=O)N[C@@H](Cc1ccc(O)cc1)C(=O)NCC(=O)O` [lassotide 5] (GGAGHVPEYFVRGDMPISFYG-OH; lactam N-8; C-terminus assumed) yielded an IC50 (integrin αvβ6 [1]) of 280 nM and an IC50 (integrin αvβ8 [2]) of 259 nM.
Compound `CC[C@H](C)[C@H](NC(=O)[C@@H]1CCCN1C(=O)[C@H](Cc1c[nH]cn1)NC(=O)[C@H](CC(=O)O)NC(=O)CNC(=O)[C@H](CCCNC(=N)N)NC(=O)[C@@H](NC(=O)[C@H](Cc1ccccc1)NC(=O)[C@H](Cc1ccc(O)cc1)NC(=O)[C@@H]1CCC(=O)NCC(=O)NCC(=O)N[C@@H](C)C(=O)NCC(=O)N[C@@H](Cc2c[nH]cn2)C(=O)N[C@@H](C(C)C)C(=O)N2CCC[C@H]2C(=O)N1)C(C)C)C(=O)N[C@@H](CO)C(=O)N[C@@H](Cc1ccccc1)C(=O)N[C@@H](Cc1ccc(O)cc1)C(=O)NCC(=O)O` [lassotide 6] (GGAGHVPEYFVRGDHPISFYG-OH; lactam N-8; C-terminus assumed) has an IC50 (integrin αvβ6 [1]) of 457 nM and an IC50 (integrin αvβ8 [2]) of 167 nM.
`CC[C@H](C)[C@H](NC(=O)[C@H](CC(C)C)NC(=O)[C@H](CC(=O)O)NC(=O)CNC(=O)[C@H](CCCNC(=N)N)NC(=O)[C@H](CCCNC(=N)N)NC(=O)[C@H](Cc1ccccc1)NC(=O)[C@H](Cc1ccc(O)cc1)NC(=O)[C@@H]1CCC(=O)NCC(=O)NCC(=O)N[C@@H](C)C(=O)NCC(=O)N[C@@H](Cc2c[nH]cn2)C(=O)N[C@@H](C(C)C)C(=O)N2CCC[C@H]2C(=O)N1)C(=O)N[C@@H](CO)C(=O)N[C@@H](Cc1ccccc1)C(=O)N[C@@H](Cc1ccc(O)cc1)C(=O)NCC(=O)O` [lassotide 20] (GGAGHVPEYFRRGDLISFYG-OH; lactam N-8; C-terminus assumed) gave an IC50 (integrin αvβ6 [1]) of 17 nM and an IC50 (integrin αvβ8 [2]) of 38 nM.
`CC[C@H](C)[C@H](NC(=O)[C@H](CC(C)C)NC(=O)[C@H](CC(=O)O)NC(=O)CNC(=O)[C@H](CCCNC(=N)N)NC(=O)[C@H](Cc1ccc(O)cc1)NC(=O)[C@H](Cc1ccccc1)NC(=O)[C@H](Cc1ccc(O)cc1)NC(=O)[C@@H]1CCC(=O)NCC(=O)NCC(=O)N[C@@H](C)C(=O)NCC(=O)N[C@@H](Cc2c[nH]cn2)C(=O)N[C@@H](C(C)C)C(=O)N2CCC[C@H]2C(=O)N1)C(=O)N[C@@H](CO)C(=O)N[C@@H](Cc1ccccc1)C(=O)N[C@@H](Cc1ccc(O)cc1)C(=O)NCC(=O)O` [lassotide 22] (GGAGHVPEYFYRGDLISFYG-OH; lactam N-8; C-terminus assumed) showed an IC50 (integrin αvβ6 [1]) of 198 nM and an IC50 (integrin αvβ8 [2]) of 78 nM.
Compound `CC(C)C[C@H](NC(=O)[C@H](CC(=O)O)NC(=O)CNC(=O)[C@H](CCCNC(=N)N)NC(=O)[C@@H](NC(=O)[C@H](Cc1ccccc1)NC(=O)[C@H](Cc1ccc(O)cc1)NC(=O)[C@@H]1CCC(=O)NCC(=O)NCC(=O)N[C@@H](C)C(=O)NCC(=O)N[C@@H](Cc2c[nH]cn2)C(=O)N[C@@H](C(C)C)C(=O)N2CCC[C@H]2C(=O)N1)C(C)C)C(=O)N[C@@H](C)C(=O)N[C@@H](CO)C(=O)N[C@@H](Cc1ccccc1)C(=O)N[C@@H](Cc1ccc(O)cc1)C(=O)NCC(=O)O` [lassotide 23] (GGAGHVPEYFVRGDLASFYG-OH; lactam N-8; C-terminus assumed) has an IC50 (integrin αvβ6 [1]) of 27 nM and an IC50 (integrin αvβ8 [2]) of 51 nM.
Work on `CC[C@H](C)[C@H](NC(=O)[C@H](CC(C)C)NC(=O)[C@H](CC(=O)O)NC(=O)CNC(=O)[C@H](CCCNC(=N)N)NC(=O)[C@@H](NC(=O)[C@H](Cc1ccccc1)NC(=O)[C@H](Cc1ccc(O)cc1)NC(=O)[C@@H]1CCC(=O)NCC(=O)NCC(=O)N[C@@H]([C@@H](C)O)C(=O)NCC(=O)N[C@@H](Cc2c[nH]cn2)C(=O)N[C@@H](C(C)C)C(=O)N2CCC[C@H]2C(=O)N1)C(C)C)C(=O)N[C@@H](CO)C(=O)N[C@@H](Cc1ccccc1)C(=O)N[C@@H](Cc1ccc(O)cc1)C(=O)NCC(=O)O` [lassotide 34] (GGTGHVPEYFVRGDLISFYG-OH; lactam N-8; C-terminus assumed) yielded an IC50 (integrin αvβ6 [3]; [5]) of 44 nM and an IC50 (integrin αvβ8 [4]) of 28 nM.
`CC(C)C[C@H](NC(=O)[C@H](CC(=O)O)NC(=O)CNC(=O)[C@H](CCCNC(=N)N)NC(=O)[C@@H](NC(=O)[C@H](Cc1ccccc1)NC(=O)[C@H](Cc1ccc(O)cc1)NC(=O)[C@@H]1CCC(=O)NCC(=O)NCC(=O)N[C@@H](CCCNC(=N)N)C(=O)NCC(=O)N[C@@H](CO)C(=O)N[C@@H](C(C)C)C(=O)N2CCC[C@H]2C(=O)N1)C(C)C)C(=O)N[C@@H](CCC(N)=O)C(=O)N[C@@H](CO)C(=O)N[C@@H](Cc1ccccc1)C(=O)N[C@@H](Cc1ccc(O)cc1)C(=O)NCC(=O)O` [lassotide 39] (GGRGSVPEYFVRGDLQSFYG-OH; lactam N-8; C-terminus assumed) gave an IC50 (integrin αvβ6 [3]; [5]) of 3.1 nM and an IC50 (integrin αvβ8 [4]) of 5.1 nM.
Compound `CC(C)C[C@H](NC(=O)[C@H](CC(=O)O)NC(=O)CNC(=O)[C@H](CCCNC(=N)N)NC(=O)[C@@H](NC(=O)[C@H](Cc1ccccc1)NC(=O)[C@H](Cc1ccc(O)cc1)NC(=O)[C@@H]1CCC(=O)NCC(=O)NCC(=O)N[C@@H](CCCNC(=N)N)C(=O)NCC(=O)N[C@@H](CCC(N)=O)C(=O)N[C@@H](C(C)C)C(=O)N2CCC[C@H]2C(=O)N1)C(C)C)C(=O)N[C@@H](CCC(N)=O)C(=O)N[C@@H](CO)C(=O)N[C@@H](Cc1ccccc1)C(=O)N[C@@H](Cc1ccc(O)cc1)C(=O)NCC(=O)O` [lassotide 40] (GGRGQVPEYFVRGDLQSFYG-OH; lactam N-8; C-terminus assumed) has an IC50 (integrin αvβ6 [3]; [5]) of 2 nM and an IC50 (integrin αvβ8 [4]) of 2.6 nM.
`CC[C@H](C)[C@@H]1NC(=O)[C@H](CO)NC(=O)CNC(=O)[C@H](CCCNC(=N)N)NC(=O)CNC(=O)CNC(=O)CC[C@@H](C(=O)N[C@@H](Cc2ccc(O)cc2)C(=O)N[C@@H](Cc2ccccc2)C(=O)N[C@H](C(=O)N[C@@H](CCCNC(=N)N)C(=O)NCC(=O)N[C@@H](CC(=O)O)C(=O)N[C@@H](CC(C)C)C(=O)N[C@@H](CCC(N)=O)C(=O)N[C@@H](CO)C(=O)N[C@@H](Cc2ccccc2)C(=O)N[C@@H](Cc2ccc(O)cc2)C(=O)NCC(=O)O)C(C)C)NC(=O)[C@@H]2CCCN2C1=O` [lassotide 41] (GGRGSIPEYFVRGDLQSFYG-OH; lactam N-8; C-terminus assumed) showed an IC50 (integrin αvβ6 [3]; [5]) of 1.4 nM and an IC50 (integrin αvβ8 [4]) of 5.8 nM.
`CC[C@H](C)[C@@H]1NC(=O)[C@H](CCC(N)=O)NC(=O)CNC(=O)[C@H](CCCNC(=N)N)NC(=O)CNC(=O)CNC(=O)CC[C@@H](C(=O)N[C@@H](Cc2ccc(O)cc2)C(=O)N[C@@H](Cc2ccccc2)C(=O)N[C@H](C(=O)N[C@@H](CCCNC(=N)N)C(=O)NCC(=O)N[C@@H](CC(=O)O)C(=O)N[C@@H](CC(C)C)C(=O)N[C@@H](CCC(N)=O)C(=O)N[C@@H](CO)C(=O)N[C@@H](Cc2ccccc2)C(=O)N[C@@H](Cc2ccc(O)cc2)C(=O)NCC(=O)O)C(C)C)NC(=O)[C@@H]2CCCN2C1=O` [lassotide 42] (GGRGQIPEYFVRGDLQSFYG-OH; lactam N-8; C-terminus assumed) was tested, and the IC50 (integrin αvβ6 [3]; [5]) was 3 nM and the IC50 (integrin αvβ8 [4]) was 2.5 nM.
Compound `CC[C@H](C)[C@@H]1NC(=O)[C@H](CO)NC(=O)CNC(=O)[C@H](CCCNC(=N)N)NC(=O)CNC(=O)CNC(=O)CC[C@@H](C(=O)N[C@@H](Cc2ccc(O)cc2)C(=O)N[C@@H](Cc2ccccc2)C(=O)N[C@H](C(=O)N[C@@H](CCCNC(=N)N)C(=O)NCC(=O)N[C@@H](CC(=O)O)C(=O)N[C@@H](CC(C)C)C(=O)N[C@@H](CCC(N)=O)C(=O)N[C@@H](CO)C(=O)N[C@@H](Cc2ccccc2)C(=O)N[C@@H](Cc2ccc(O)cc2)C(=O)N[C@@H](CCCCN)C(=O)O)C(C)C)NC(=O)[C@@H]2CCCN2C1=O` [lassotide 43] (GGRGSIPEYFVRGDLQSFYK-OH; lactam N-8; C-terminus assumed) has an IC50 (integrin αvβ6 [3]; [5]) of 1.2 nM and an IC50 (integrin αvβ8 [4]) of 5.1 nM.
Work on `CC(C)C[C@H](NC(=O)[C@H](CC(=O)O)NC(=O)CNC(=O)[C@H](CCCNC(=N)N)NC(=O)[C@H](CCC(N)=O)NC(=O)[C@H](Cc1ccccc1)NC(=O)[C@H](Cc1ccc(O)cc1)NC(=O)[C@@H]1CCC(=O)NCC(=O)NCC(=O)N[C@@H]([C@@H](C)O)C(=O)NCC(=O)N[C@@H](Cc2c[nH]cn2)C(=O)N[C@@H](C(C)C)C(=O)N2CCC[C@H]2C(=O)N1)C(=O)N[C@@H](CCC(N)=O)C(=O)N[C@@H](CO)C(=O)N[C@@H](Cc1ccccc1)C(=O)N[C@@H](Cc1ccc(O)cc1)C(=O)NCC(=O)O` [lassotide 45] (GGTGHVPEYFQRGDLQSFYG-OH; lactam N-8; C-terminus assumed) yielded an IC50 (integrin αvβ6 [3]) of 0.7 nM and an IC50 (integrin αvβ8 [4]) of 1 nM.
For `CC[C@H](C)[C@@H]1NC(=O)[C@H](Cc2c[nH]cn2)NC(=O)CNC(=O)[C@H]([C@@H](C)O)NC(=O)CNC(=O)CNC(=O)CC[C@@H](C(=O)N[C@@H](Cc2ccc(O)cc2)C(=O)N[C@@H](Cc2ccccc2)C(=O)N[C@@H](CCC(N)=O)C(=O)N[C@@H](CCCNC(=N)N)C(=O)NCC(=O)N[C@@H](CC(=O)O)C(=O)N[C@@H](CC(C)C)C(=O)N[C@@H](CCC(N)=O)C(=O)N[C@@H](CO)C(=O)N[C@@H](Cc2ccccc2)C(=O)N[C@@H](Cc2ccc(O)cc2)C(=O)NCC(=O)O)NC(=O)[C@@H]2CCCN2C1=O` [lassotide 46] (GGTGHIPEYFQRGDLQSFYG-OH; lactam N-8; C-terminus assumed), the IC50 (integrin αvβ6 [3]; [5]) was 2.1 nM and the IC50 (integrin αvβ8 [4]) was 1.3 nM.
